± gives the uncertainty stated by the source.
Assay: TIMS collision cross section in N2 (TIMS CCS N2); higher = larger gas-phase ion size
Conditions: drift gas: N2 (99.4% N2, 0.6% O2), calibration: Stow et al. 2017 values for Agilent ESI-L Low Concentration Tune Mix, ionization: negative ESI

Row | Compound | TIMS collision cross section in N2 (ion species: [M-H]-) [Å²] | TIMS collision cross section in N2 (ion species: [M-3H]-) [Å²] | other results
1 | C[C@@H]1O[C@@H](O[C@H]2[C@H](Oc3cc(O)c4c(=O)cc(-c5ccc(O)cc5)oc4c3)O[C@H](CO)[C@@H](O)[C@@H]2O)[C@H](O)[C@H](O)[C@H]1O [Rhoifolin] | 225.59 ± 0.085 |  | TIMS collision cross section in N2 (ion species: [M-H+Na+HCO2H]-): 229.74 ± 2.3 Å²
2 | O=C1C[C@@H](c2ccc(O)c(O)c2)Oc2cc(O)cc(O)c21 [Eriodictyol] | 165.97 ± 0.11 |  | 
3 | O=C1C[C@@H](c2ccc(O)cc2)Oc2cc(O)ccc21 [Liquiritigenin] | 159.28 ± 0.075 |  | TIMS collision cross section in N2 (ion species: [2M-H]-): 202.54 ± 0.082 Å²
4 | O=C(CCc1ccc(O)c(O)c1)c1c(O)cc(O)c([C@@H]2O[C@H](CO)[C@@H](O)[C@H](O)[C@H]2O)c1O [Aspalathin] | 194.21 ± 0.22 | 195.17 ± 0.1 | TIMS collision cross section in N2 (ion species: [2M-H]-): 274.03 ± 0.72 Å²
5 | COc1ccc([C@@H]2CC(=O)c3c(O)cc(O[C@@H]4O[C@H](CO)[C@@H](O)[C@H](O)[C@H]4O[C@@H]4O[C@@H](C)[C@H](O)[C@@H](O)[C@H]4O)cc3O2)cc1O [Neohesperidin] | 226.82 ± 0.1 |  | 
6 | O=C(O)[C@H]1O[C@@H](Oc2cc3oc(-c4ccc(O)cc4)cc(=O)c3c(O)c2O)[C@H](O)[C@@H](O)[C@@H]1O [scutellarin (Scutellarein-7-glucuronide)] |  | 206.59 ± 0.074 | 
7 | O=C1CC(c2ccc(O)c(O)c2)Oc2cc(O)c(O)cc21 (stereo not drawn) [6,7,3',4'-Tetrahydroxyflavanone] | 167.53 ± 0.27 | 161.92 ± 0.36 | 
8 | COc1ccc(-c2coc3cc(O[C@@H]4O[C@H](CO)[C@@H](O)[C@H](O)[C@H]4O)ccc3c2=O)cc1 [Ononin (Formononetin 7-O-glucoside)] |  |  | TIMS collision cross section in N2 (ion species: [M-H+HCO2H]-): 223.35 ± 0.14 Å²
